Laboratory results reported in PubChem BioAssay (NCI).
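48-hour exposure; five concentrations; linearly interpolated endpoints. Abbreviation: GI50, concentration required for 50% inhibition of growth. TGI: concentration producing complete growth inhibition.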

Key:
Test in all cases: growth of human tumour cells (NCI), 48 h
786-0 renal = test system: 786-0 renal
CAKI-1 renal = test system: CAKI-1 renal
HCT-116 colon = test system: HCT-116 colon
MDA-MB-231 breast = test system: MDA-MB-231 breast
SK-OV-3 ovarian = test system: SK-OV-3 ovarian
SN12C renal = test system: SN12C renal
SNB-75 CNS = test system: SNB-75 CNS
SW-620 colon = test system: SW-620 colon
T-47D breast = test system: T-47D breast
CCRF-CEM leukemia = test system: CCRF-CEM leukemia

| SMILES | GI50 (786-0 renal) [µM] | TGI (786-0 renal) [µM] | GI50 (CAKI-1 renal) [µM] | TGI (CAKI-1 renal) [µM] | GI50 (HCT-116 colon) [µM] | TGI (HCT-116 colon) [µM] | GI50 (MDA-MB-231 breast) [µM] | TGI (MDA-MB-231 breast) [µM] | GI50 (SK-OV-3 ovarian) [µM] | TGI (SK-OV-3 ovarian) [µM] | GI50 (SN12C renal) [µM] | TGI (SN12C renal) [µM] | GI50 (SNB-75 CNS) [µM] | TGI (SNB-75 CNS) [µM] | GI50 (SW-620 colon) [µM] | TGI (SW-620 colon) [µM] | GI50 (T-47D breast) [µM] | TGI (T-47D breast) [µM] | GI50 (CCRF-CEM leukemia) [µM] | TGI (CCRF-CEM leukemia) [µM] |
| --- | --- | --- | --- | --- | --- | --- | --- | --- | --- | --- | --- | --- | --- | --- | --- | --- | --- | --- | --- | --- |
| NC(=NCCCCCCN=C(N)/N=C(\N)Nc1ccc(Cl)cc1)/N=C(\N)Nc1ccc(Cl)cc1 | 1.6 | 5.8 | 1.33 | 4.79 | 1.74 | 6.12 | 1.42 | 3.96 | 0.916 | 5.54 | 1.27 | 5.77 | 1.03 | 2.92 | 1.54 | 5.15 | 1.71 | 7.72 |  |  |
| O=C1C(Cl)=C(Nc2ccc(S(=O)(=O)c3ccc(NC4=C(Cl)C(=O)c5ccccc5C4=O)cc3)cc2)C(=O)c2ccccc21 | 1.86 | 3.29 | 1.38 | 2.74 | 1.2 | 2.49 | 1.61 | 3.51 | 2.4 | 7.94 |  |  | 1.04 | 2.33 |  |  |  |  | 1.9 | > 100 |
| Cc1cc(N(CCC#N)CCC#N)ccc1/C=C(\NC(=O)/C=C/c1ccccc1)C(=O)Nc1ccccc1Cl |  | > 100 |  | > 100 |  | > 100 |  |  |  |  |  | > 100 |  |  |  | > 100 |  |  |  | > 100 |
| COc1cc2c(oc(=O)c3c4occc4cc(OC)c23)c2cccc(O)c12 |  | > 100 |  | > 100 |  | > 100 |  |  |  | > 100 |  | > 100 |  | > 100 |  | > 100 |  |  |  | > 100 |
| COC(=O)C1=NC(=S)NC(c2ccccc2)C1c1nc2ccccc2o1 (stereo unspecified) |  | > 50 |  | > 50 |  | > 50 |  |  |  | > 50 |  | > 50 |  |  |  | > 50 |  |  |  | > 50 |
| CCCN1C(=O)/C(=C/c2ccc(SC(F)(F)F)cc2)SC1=Nc1ccc(OC)cc1 | 9.56 | 25.6 | 2.63 | 12.5 | 6.29 | 17.5 | 5.93 | 19.5 | 15.2 | > 50 | 13.6 | > 50 |  |  | 38.6 | > 50 |  |  |  |  |
| COC(=O)C(=O)C(C(=O)C(=O)Nc1ccc([N+](=O)[O-])cc1)c1nc2ccccc2[nH]c1=O (stereo unspecified) |  | > 100 |  | > 100 |  | > 100 |  |  |  | > 100 |  | > 100 |  | > 100 |  | > 100 |  |  |  | > 100 |
| COC(=O)c1c(C)nc(C)c2c1C(=O)C(Br)=C(NCc1ccccc1)C2=O | 4.65 | 16.3 | 5.66 | 18.7 | 2.5 | 7.22 | 2.11 | 8.4 | 6.2 | 19.2 | 1.49 | 3.45 |  |  | 3.39 | 10.7 | 2.26 | 5 | 3.11 | 36.8 |
| CC1NOC(=O)C1N=Nc1cccc(Cl)c1 (stereo unspecified) |  | > 100 |  | > 100 |  | > 100 |  |  |  | 96.1 |  | > 100 |  | 92.2 |  | 23.4 |  |  |  | 57.7 |
| COc1ccc(/C=C/C(=N\NC(=O)c2ccccc2)c2sc(Nc3ccc([N+](=O)[O-])cc3)nc2C)cc1OC |  | 26.5 |  | 32.8 |  | > 100 |  |  |  | > 100 |  | > 100 |  | 17.8 |  | > 100 |  |  |  | > 100 |
| Cc1c(Cl)ccc2c1NC(=O)C2(O)CC(=O)c1ccc(Cl)cc1 (stereo unspecified) |  | > 100 |  | > 100 |  | > 54 |  |  |  | > 100 |  | > 54.9 |  | > 100 |  | > 53.1 |  |  |  | 53.5 |
| CCOc1ccc(C2=NN(CC)C(=O)C(C3C(=O)N(c4ccccc4)N=C3C)C2)cc1 (stereo unspecified) |  | > 100 |  | > 100 |  | > 100 |  |  |  | > 100 |  |  |  |  |  | > 100 |  |  |  | > 100 |
| COc1cc(C(=O)c2cnc(-c3c[nH]c4cccc(C)c34)[nH]2)cc(OC)c1OC | 0.00681 | > 100 |  | > 100 | 0.00346 | 11.1 | 0.0204 |  | 0.0065 | 2.5 | 0.00929 | > 100 | 0.00257 | 36.8 | 0.00416 | > 100 |  |  | 0.00824 | > 100 |
| Cc1cc(NCCCCCCCNc2cc(C)nc3cc(N)ccc23)c2ccc(N)cc2n1 |  | > 100 |  | > 100 |  | > 100 |  |  |  | > 100 |  | > 100 |  | > 100 |  |  |  |  |  | 64.9 |
| COC(=O)Cc1cc(=O)n2c3ccccc3n(C)c2c1C#N |  | > 100 |  | > 100 |  | > 100 |  |  |  | > 100 |  | > 100 |  | > 100 |  | > 100 |  |  |  |  |
| C[N+](C)(C)CC1CCC(C[N+](C)(C)C)C1=NO (stereo unspecified) |  | > 100 |  |  |  | > 100 |  |  |  | > 100 |  | > 100 |  | > 100 |  | > 100 |  |  |  | > 100 |
| CCCC1C[C@H]2CCCCN2[C@H]2CCCN12 (stereo partly specified) |  | > 100 |  | > 100 |  | > 66.2 |  |  |  | > 100 |  | > 100 |  | > 100 |  | > 58.4 |  |  |  | > 68.6 |
| CCc1ccc2c(c1)C(=O)c1c-2n(CCCN)c(=O)c2cc(OC)c(OC)cc12 | 1.68 | 3.11 |  |  |  |  | 1.63 | 3.14 | 2 | 3.58 | 1.73 | 3.33 | 1.96 | 4.3 | 1.72 | 3.33 |  |  | 1.1 | 2.48 |
| FC(F)(F)c1ccccc1C1SCc2nc3ccccc3n21 (stereo unspecified) |  | > 100 |  | > 100 |  | > 100 |  |  |  | > 100 |  | > 100 |  | > 100 |  | > 100 |  |  |  | > 100 |
| COC(=O)c1c(C(=O)OC)c(-c2ccccc2)n(-c2ccccc2)c(=O)c1-c1ccccc1 |  | > 100 |  | > 100 |  | > 100 |  |  |  | > 100 |  | > 100 |  | 64 |  | > 100 |  |  |  | > 100 |
| CCn1cc(C(=O)O)c(=O)c2cc(F)c(N3CCN(S(=O)(=O)c4ccc(Cl)cc4Cl)CC3)cc21 | 3.19 | 14.9 | 2.01 | 4.8 | 3.56 | > 100 | 1.88 | 4.7 | 3 | 8.94 | 2.77 | > 100 |  |  | 3.91 | > 100 | 3.11 | 9.71 | 3.03 | > 100 |
